One assay relates to aorta rings. In words: Vessel-relaxing action in vitro (aorta rings, phenylephrine contraction). The note with it: Oryctolagus cuniculus, concentration required to reduce phenylephrine-induced contraction of rabbit aorta rings by 50%. The method, then:
B-1. Vessel-relaxing Action in vitro
Rabbits are stunned with a blow on the back of the neck and exsanguinated. The aorta is removed, freed from adhering tissue, separated into rings with a width of 1.5 mm, and placed individually, with preloading, in 5-ml organ baths with carbogen-gassed Krebs-Henseleit solution at 37° C. with the following composition (mM in each case): sodium chloride: 119; potassium chloride: 4.8; calcium chloride dihydrate: 1; magnesium sulphate heptahydrate: 1.4; potassium dihydrogen phosphate: 1.2; sodium hydrogen carbonate: 25; glucose: 10. The contraction force is recorded with Statham UC2 cells, amplified and digitized via an A/D converter (DAS-1802 HC, Keithley Instruments Munich) and recorded in parallel on a continuous-line recorder. To produce contraction, phenylephrine is added to the bath cumulatively in increasing concentration. After several control cycles, the test substance is added in increasing dosage in each subsequent pass and the level of contraction is compared with the level of contraction reached in the immediately preceding pass. This is used for calculating the concentration that is required to reduce the level of the control value by 50% (IC50 value). The standard application volume is 5 μl, and the proportion of DMSO in the bath solution corresponds to 0.1%.

The target of assay [1] is T1, recombinant guanylate cyclase reporter cell line (Rattus norvegicus, UniProt P19686+P20595).
T1 construct: expressed in transfected cells
T1 sequence (P20595 1-619): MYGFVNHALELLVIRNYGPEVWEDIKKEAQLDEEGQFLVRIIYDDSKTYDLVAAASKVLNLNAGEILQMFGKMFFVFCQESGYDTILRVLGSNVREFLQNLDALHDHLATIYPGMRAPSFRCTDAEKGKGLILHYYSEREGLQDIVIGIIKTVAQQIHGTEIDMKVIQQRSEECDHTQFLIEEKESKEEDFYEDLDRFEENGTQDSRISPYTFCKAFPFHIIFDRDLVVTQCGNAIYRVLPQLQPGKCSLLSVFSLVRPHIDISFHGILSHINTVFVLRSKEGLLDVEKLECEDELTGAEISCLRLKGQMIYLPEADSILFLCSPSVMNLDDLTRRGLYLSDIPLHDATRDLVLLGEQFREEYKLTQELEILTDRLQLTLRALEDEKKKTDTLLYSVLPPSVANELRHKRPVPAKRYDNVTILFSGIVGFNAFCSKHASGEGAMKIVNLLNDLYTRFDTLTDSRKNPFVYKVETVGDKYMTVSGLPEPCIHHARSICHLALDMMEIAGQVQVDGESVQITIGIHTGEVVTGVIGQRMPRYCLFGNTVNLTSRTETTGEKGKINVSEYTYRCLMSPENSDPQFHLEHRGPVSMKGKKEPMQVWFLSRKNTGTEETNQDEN
T1 sequence (P19686 1-690): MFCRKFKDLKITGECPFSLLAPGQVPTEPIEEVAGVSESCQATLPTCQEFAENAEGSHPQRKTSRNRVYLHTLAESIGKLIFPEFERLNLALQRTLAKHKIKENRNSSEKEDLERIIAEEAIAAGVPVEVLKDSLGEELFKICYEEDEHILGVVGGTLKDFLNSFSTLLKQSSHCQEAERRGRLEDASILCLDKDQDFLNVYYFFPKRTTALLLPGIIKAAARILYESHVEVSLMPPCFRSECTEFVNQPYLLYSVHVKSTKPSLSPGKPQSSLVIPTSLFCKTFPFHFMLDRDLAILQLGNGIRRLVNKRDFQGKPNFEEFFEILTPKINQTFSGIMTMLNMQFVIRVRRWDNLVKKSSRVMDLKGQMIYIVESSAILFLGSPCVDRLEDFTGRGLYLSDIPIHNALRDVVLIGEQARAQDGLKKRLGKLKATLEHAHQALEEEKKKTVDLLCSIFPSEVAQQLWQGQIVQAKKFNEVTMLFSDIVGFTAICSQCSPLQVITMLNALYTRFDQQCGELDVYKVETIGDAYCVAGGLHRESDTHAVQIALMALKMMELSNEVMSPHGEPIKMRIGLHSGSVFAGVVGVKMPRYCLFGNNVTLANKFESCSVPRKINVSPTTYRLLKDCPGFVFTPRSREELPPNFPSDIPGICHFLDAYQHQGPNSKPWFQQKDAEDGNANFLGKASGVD
In words: Action on recombinant guanylate cyclase reporter cell line. It counts as cell-based. The method, then: B-2. Action on Recombinant Guanylate Cyclase Reporter Cell Line
The cellular action of the compounds according to the invention is determined on a recombinant guanylate cyclase reporter cell line, as described in F. Wunder et al., Anal. Biochem. 339, 104-112 (2005).

Assay [2] deals with T2, human phosphodiesterase 5 (PDE-5) (Homo sapiens, UniProt O76074).
T2 construct: PDE-5 preparations are obtained from human platelets by lysis; from tissue; host or cells: human platelets
As to the kind of experiment: Inhibition of human phosphodiesterase 5 (PDE-5), SPA assay. As to conditions: PDE-5 preparation from human platelets, [8-3H]cGMP substrate. In kind it is biochemical. In outline:
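PDE-5 partially purified from human platelets by Mono Q chromatography, diluted so under 70% of [8-3H]cGMP (0.025 μCi) converted. Compounds at 4 μM to 0.0018 μM final, Tris-HCl pH 7.5 with MgCl2, 60 min at room temperature. Yttrium SPA beads stop reaction; IC50 from concentration–inhibition plots.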

SMILES strings stand for the structures. pIC50: −log10 of the molar value.

A word on the pIC50: it is −log10 of the IC50, conventionally taken in molar units. A high value points to a small IC50. Turning to `CC1(C)C(=O)Nc2nc(-c3nn(Cc4ccccc4F)c4ncccc34)nc(Oc3cn[nH]c3)c21` [Example 27, 2-[1-(2-Fluorobenzyl)-1H-pyrazolo[3,4-b]pyridin-3-yl]-5,5-dimethyl-4-(1H-pyrazol-4-yloxy)-5,7-dihydro-6H-pyrrolo[2,3-d]pyrimidin-6-one], the pIC50 with aorta rings was 5.83; in assay [2] it was 8.40. For the same compound, in assay [1], the “MEC (minimal effective concentration)” value came to 0.1 μm.
In the same order, the values of `COc1nc(-c2nn(Cc3ccccc3F)c3ncccc23)nc2c1C(C)(C)C(=O)N2` [Example 1, 2-[1-(2-Fluorobenzyl)-1H-pyrazolo[3,4-b]pyridin-3-yl]-4-methoxy-5,5-dimethyl-5,7-dihydro-6H-pyrrolo[2,3-d]pyrimidin-6-one] are 6.94, 6.85 and 0.1 μm.
On to `CC1(C)C(=O)Nc2nc(-n3nc(Cc4ccccc4F)c4cc(F)ccc43)nc(NCC3CC3)c21` [Example 38], for which the pIC50 with aorta rings is 5.00; in assay [2] it was 7.39. Also, the “MEC (minimal effective concentration)” value in assay [1] turned out to be 0.3 μm.
For the compound `CC1(C)C(=O)Nc2nc(-c3nn(Cc4ccccc4F)c4ncccc34)nc(OCC3CC3)c21` [Example 113, 4-(Cyclopropylmethoxy)-2-[1-(2-fluorobenzyl)-1H-pyrazolo[3,4-b]pyridin-3-yl]-5,5-dimethyl-5,7-dihydro-6H-pyrrolo[2,3-d]pyrimidin-6-one], the negative logarithm of the IC50 (pIC50) with aorta rings is 5.71; in assay [2], 6.92. In addition, the “MEC (minimal effective concentration)” value in assay [1] was found to be 0.1 μm.
The matching figures for `CC1(C)C(=O)Nc2nc(-c3nc(Cc4ccccc4F)c4ncccn34)nc(NCCC(F)(F)F)c21` [Example 39, 2-[8-(2-Fluorobenzyl)imidazo[1,5-a]pyrimidin-6-yl]-5,5-dimethyl-4-[(3,3,3-trifluoropropyl)amino]-5,7-dihydro-6H-pyrrolo[2,3-d]pyrimidin-6-one]: 6.21, 7.06 and 0.1 μm.
The matching figures for `CC1(C)C(=O)Nc2nc(-c3nn(Cc4ccccc4F)c4ncccc34)nc(N3CCC(N)C3)c21` (racemic) [Example 106, 4-(3-Aminopyrrolidin-1-yl)-2-[1-(2-fluorobenzyl)-1H-pyrazolo[3,4-b]pyridin-3-yl]-5,5-dimethyl-5,7-dihydro-6H-pyrrolo[2,3-d]pyrimidin-6-one]: 5.84, 7.92 and 1 μm.
With `CC1(C)C(=O)Nc2nc(-c3nn(Cc4ccccc4F)c4ncccc34)nc(-n3cc(O)cn3)c21` [Example 26, 2-[1-(2-Fluorobenzyl)-1H-pyrazolo[3,4-b]pyridin-3-yl]-4-(4-hydroxy-1H-pyrazol-1-yl)-5,5-dimethyl-5,7-dihydro-6H-pyrrolo[2,3-d]pyrimidin-6-one], the values for the pIC50 (with aorta rings; in assay [2]) were 6.17 and 7.92, respectively. Also, the “MEC (minimal effective concentration)” value in assay [1] amounted to 0.03 μm.
In the same order, the values of `CC1(C)C(=O)Nc2nc(-c3nn(Cc4ccccc4F)c4ncccc34)nc(-n3ccc(C(F)(F)F)n3)c21` [Example 30, 2-[1-(2-Fluorobenzyl)-1H-pyrazolo[3,4-b]pyridin-3-yl]-5,5-dimethyl-4-[3-(trifluoromethyl)-1H-pyrazol-1-yl]-5,7-dihydro-6H-pyrrolo[2,3-d]pyrimidin-6-one] are under 5.00, under 5.40 and 1.0 μm.
The matching figures for `CC1(C)C(=O)Nc2nc(-c3nn(Cc4ncccc4F)c4ncc(F)cc34)nc(NCC(F)(F)F)c21` [Example 16, 2-{5-Fluoro-1-[(3-fluoropyridin-2-yl)methyl]-1H-pyrazolo[3,4-b]pyridin-3-yl}-5,5-dimethyl-4-[(2,2,2-trifluoroethyl)amino]-5,7-dihydro-6H-pyrrolo[2,3-d]pyrimidin-6-one]: 6.90, 7.89 and 0.1 μm.
The matching figures for `CC1(C)C(=O)Nc2nc(-c3nn(Cc4ccccc4F)c4ncc(F)cc34)nc(NCCO)c21` [Example 2, 2-[5-Fluoro-1-(2-fluorobenzyl)-1H-pyrazolo[3,4-b]pyridin-3-yl]-4-[(2-hydroxyethyl)amino]-5,5-dimethyl-5,7-dihydro-6H-pyrrolo[2,3-d]pyrimidin-6-one]: 7.27, 8.10 and 0.3 μm.
Consider `CC1(C)C(=O)Nc2nc(-c3nn(Cc4ccccc4F)c4ncc(F)cc34)nc(N3CCC(F)(F)CC3)c21` [Example 103, 4-(4,4-Difluoropiperidin-1-yl)-2-[5-fluoro-1-(2-fluorobenzyl)-1H-pyrazolo[3,4-b]pyridin-3-yl]-5,5-dimethyl-5,7-dihydro-6H-pyrrolo[2,3-d]pyrimidin-6-one], for which the results for the pIC50 (in the assay with aorta rings; in assay [2]) were 6.26 and 6.40, respectively. Also, the “MEC (minimal effective concentration)” value in assay [1] came out at 1 μm.
As for `CC1(C)C(=O)Nc2nc(-c3nn(Cc4ccccc4F)c4ncc(F)cc34)nc(NCCCC(F)(F)F)c21` [Example 18, 2-[5-Fluoro-1-(2-fluorobenzyl)-1H-pyrazolo[3,4-b]pyridin-3-yl]-5,5-dimethyl-4-[(4,4,4-trifluorobutyl)amino]-5,7-dihydro-6H-pyrrolo[2,3-d]pyrimidin-6-one], the pIC50 with aorta rings is 5.57; in assay [2], 6.92. Also, the “MEC (minimal effective concentration)” value in assay [1] was found to be 0.03 μm.
In the case of `CC1(C)C(=O)Nc2nc(-c3nn(Cc4ccccc4F)c4ncc(F)cc34)nc(NCC3CC3)c21` [Example 10, 4-[(Cyclopropylmethyl)amino]-2-[5-fluoro-1-(2-fluorobenzyl)-1H-pyrazolo[3,4-b]pyridin-3-yl]-5,5-dimethyl-5,7-dihydro-6H-pyrrolo[2,3-d]pyrimidin-6-one], the negative logarithm of the IC50 (pIC50) with aorta rings is 6.26; in assay [2], 7.28. For the same compound, the “MEC (minimal effective concentration)” value in assay [1] is recorded as 0.3 μm.
The matching figures for `CC1(C)C(=O)Nc2nc(-c3nn(Cc4ncccc4F)c4ncc(F)cc34)nc(NCC3CC3)c21` [Example 17, 4-[(Cyclopropylmethyl)amino]-2-{5-fluoro-1-[(3-fluoropyridin-2-yl)methyl]-1H-pyrazolo[3,4-b]pyridin-3-yl}-5,5-dimethyl-5,7-dihydro-6H-pyrrolo[2,3-d]pyrimidin-6-one]: 6.70, 7.62 and 0.1 μm.

For the origin of these results see US8859569B2, “Substituted annellated pyrimidines and use thereof” (Bayer Pharma Aktiengesellschaft, priority 2011, dated 2014).
